# In patent US10543213B2, “Treatment of relapsed and/or refractory solid tumors and non-hodgkin's lymphomas” (Celgene Quanticel Research, Inc., priority 2016, dated 2020):
# pIC50: −log10 of the molar value. Where two headings read alike, the source gives them in different places.
# Key:
# LXFS 573 SCLC PDX [1] = test system: LXFS 573 SCLC PDX
# human LSD-1 = human LSD-1 (Homo sapiens (Human), UniProt O60341); assay: In vitro enzyme inhibition assay LSD-1 (TR-FRET); format: biochemical; details: H3K4me1-biotin labeled peptide
# Description: This assay determines the ability of a test compound to inhibit LSD-1 demethylase activity.
# The enzymatic assay of LSD-1 activity is based on Time Resolved-Fluorescence Resonance Energy Transfer (TR-FRET) detection.
# NCI-H1417 SCLC xenograft = assay: Efficacy in NCI-H1417 SCLC xenograft model; format: in vivo, female athymic nude mice
# [2] = Exploratory toxicity study in mice; format: in vivo, CD-1 mice; details: for reduction in neutrophil counts vs concurrent controls: 60 mg/kg/dose QOD
# Description: Additional animals were included for TK evaluation.
# CYP2D6 = CYP2D6 (Homo sapiens (Human), UniProt P10635); assay: CYP inhibition in pooled human liver microsomes, CYP2D6; format: in vitro ADME; details: up to 50 μM
# LXFS 1129 SCLC PDX = assay: Efficacy in LXFS 1129 SCLC PDX model; format: in vivo, female immunodeficient NMRI-Foxn1nu mice; details: 1.5 and 5 mg base/kg QD for 30 days
# LU2514 SCLC PDX = format: in vivo
# Method: Tumor growth inhibition analysis was performed on Day 28 post treatment, the last day of dosing.
# LXFS 615 SCLC PDX = assay: Efficacy in LXFS 615 SCLC PDX model; format: in vivo, female immunodeficient NMRI-Foxn1nu mice; details: 5 mg base/kg oral for 30 days
# MS-1 hMCC xenograft = format: in vivo; details: 5 mg/kg 5 on/2 off; Day 36 minus Day -3
# [3] = Pharmacokinetics across species (statements covering several species); format: in vivo, mice, rats, dogs, and monkeys; details: plasma; for half-life: intravenous; for bioavailability: po
# Method: Disparate half-lives were noted between rodents and non-rodents with values ranging from either 2 to 4 hours in rodents or from 12 to 20 hours in non-rodents.
# [4] = Pharmacokinetics following IV and oral administration, rats; format: in vivo, Sprague Dawley rats; details: IV dosing
# [5] = Exploratory toxicity study in dogs; format: in vivo, Beagle dogs
# [6] = test system: Salmonella typhimurium TA98 and TA100 strains; assay: Bacterial reverse mutation assay; format: cell-based; details: up to 500 μg/mL, presence and absence of S9
# [7] = 4-week toxicity study with 4-week recovery in mice; details: 25 mg base/kg/dose QOD×3 weekly, males
# [8] = dog, in vivo
# [9] = Pharmacokinetics following IV and oral administration, mice; format: in vivo, CD-1 mice; details: Mouse, Female, single oral dose 10 mg base/kg
# CYP2C9 = CYP2C9 (Homo sapiens (Human), UniProt P11712); assay: CYP inhibition in pooled human liver microsomes, CYP2C9; format: in vitro ADME; details: up to 50 μM
# [10] = 4-week toxicity study (no recovery period) in dogs; details: Q2W administration, not determined
# [11] = Hemodynamic and ECG parameters in anesthetized guinea pigs; format: in vivo, male Dunkin Hartley guinea pigs
# Description: Animals were monitored throughout the experiment.
# [12] = test system: recombinant human CYP enzymes; assay: CYP reaction phenotyping with recombinant human CYP enzymes; format: in vitro ADME
# Description: The role of non-CYP enzymes in the metabolism of Compound A is yet to be ascertained.
# MKL-1 hMCC xenograft = format: in vivo; details: 5 mg/kg 5 on/2 off
# LXFS 573 SCLC PDX [13] = assay: Efficacy in LXFS 573 SCLC PDX model; format: in vivo, female immunodeficient NMRI-Foxn1nu mice; details: 5, 7.5, 10 mg/kg oral
# [14] = Metabolism in cryopreserved primary hepatocytes; format: in vitro ADME; details: hepatocytes of mouse, rat, dog, monkey, human
# [15] = Excretion in bile duct cannulated rats; format: in vivo; details: IV, 24-hour period post dosing
# [16] = 4-week oral gavage pivotal toxicity study with 4-week recovery in dogs; format: in vivo, Beagle dogs
# P-gp (human MDR1) = P-gp (human MDR1) (Homo sapiens (Human), UniProt P08183); assay: Permeability in MDR1-MDCK cells; format: in vitro ADME; details: dog
# [17] = molecular target: MDR1(human P-gp)-MDCK cells (Homo sapiens (Human), UniProt P08183); assay: Permeability in MDR1-MDCK cells; format: in vitro ADME
# [18] = Etoposide at 24 mg/kg/day SC days 1-3 + Vehicle
# [19] = etoposide monotherapy 24 mg/kg SC
# [20] = CD-1, Sprague Dawley, mouse, rat, rodents
# [21] = after escalating IV doses up to 20 mg base/kg
# Chain of P-gp (human MDR1) (P08183 whole entry): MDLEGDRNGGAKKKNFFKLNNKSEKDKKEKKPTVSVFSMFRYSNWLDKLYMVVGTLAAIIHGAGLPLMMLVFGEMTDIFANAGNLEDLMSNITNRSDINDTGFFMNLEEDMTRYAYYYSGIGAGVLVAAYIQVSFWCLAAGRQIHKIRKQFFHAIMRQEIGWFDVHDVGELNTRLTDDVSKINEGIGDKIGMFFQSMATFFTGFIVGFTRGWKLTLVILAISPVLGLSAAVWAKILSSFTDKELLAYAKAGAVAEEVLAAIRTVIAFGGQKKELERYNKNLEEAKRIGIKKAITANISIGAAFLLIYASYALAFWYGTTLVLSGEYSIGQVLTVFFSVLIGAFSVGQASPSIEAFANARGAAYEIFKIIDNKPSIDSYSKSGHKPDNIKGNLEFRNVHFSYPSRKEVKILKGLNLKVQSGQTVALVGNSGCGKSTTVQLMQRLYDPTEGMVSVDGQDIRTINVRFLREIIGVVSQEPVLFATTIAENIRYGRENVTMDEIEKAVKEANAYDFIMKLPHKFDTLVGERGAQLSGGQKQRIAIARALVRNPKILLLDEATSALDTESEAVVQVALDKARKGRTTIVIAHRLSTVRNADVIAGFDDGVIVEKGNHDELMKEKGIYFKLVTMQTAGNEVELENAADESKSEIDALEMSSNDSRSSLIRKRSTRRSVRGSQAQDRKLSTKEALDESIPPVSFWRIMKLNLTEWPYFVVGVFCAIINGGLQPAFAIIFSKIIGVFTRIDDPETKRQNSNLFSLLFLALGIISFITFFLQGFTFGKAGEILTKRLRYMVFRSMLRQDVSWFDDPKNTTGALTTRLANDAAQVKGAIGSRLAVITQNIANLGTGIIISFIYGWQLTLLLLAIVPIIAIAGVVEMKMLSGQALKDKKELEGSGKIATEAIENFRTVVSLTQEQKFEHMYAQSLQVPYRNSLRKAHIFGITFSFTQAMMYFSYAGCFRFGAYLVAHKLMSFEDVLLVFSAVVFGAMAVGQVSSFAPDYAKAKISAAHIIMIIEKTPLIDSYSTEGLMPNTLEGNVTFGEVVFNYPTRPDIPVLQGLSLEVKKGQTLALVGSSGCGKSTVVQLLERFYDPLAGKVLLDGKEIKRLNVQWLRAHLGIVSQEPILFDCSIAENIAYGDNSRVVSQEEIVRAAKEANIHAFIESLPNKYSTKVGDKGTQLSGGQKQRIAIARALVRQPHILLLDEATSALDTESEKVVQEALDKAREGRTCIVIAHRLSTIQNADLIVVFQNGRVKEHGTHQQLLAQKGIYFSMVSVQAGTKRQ
# Chain of CYP2C9 (P11712 whole entry): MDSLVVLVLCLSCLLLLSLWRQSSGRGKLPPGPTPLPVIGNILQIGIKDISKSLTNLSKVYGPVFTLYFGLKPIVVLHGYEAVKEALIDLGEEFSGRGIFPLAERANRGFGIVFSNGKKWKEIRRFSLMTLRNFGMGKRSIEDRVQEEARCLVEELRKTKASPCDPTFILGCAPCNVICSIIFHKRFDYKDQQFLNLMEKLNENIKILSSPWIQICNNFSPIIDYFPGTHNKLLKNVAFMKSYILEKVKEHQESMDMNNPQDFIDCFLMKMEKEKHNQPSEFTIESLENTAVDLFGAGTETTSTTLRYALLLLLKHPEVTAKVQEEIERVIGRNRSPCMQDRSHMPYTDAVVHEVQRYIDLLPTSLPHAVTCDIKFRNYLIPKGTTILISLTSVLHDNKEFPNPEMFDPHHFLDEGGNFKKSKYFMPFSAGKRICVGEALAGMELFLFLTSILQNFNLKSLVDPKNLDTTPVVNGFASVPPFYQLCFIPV
# Chain of CYP2D6 (P10635 whole entry): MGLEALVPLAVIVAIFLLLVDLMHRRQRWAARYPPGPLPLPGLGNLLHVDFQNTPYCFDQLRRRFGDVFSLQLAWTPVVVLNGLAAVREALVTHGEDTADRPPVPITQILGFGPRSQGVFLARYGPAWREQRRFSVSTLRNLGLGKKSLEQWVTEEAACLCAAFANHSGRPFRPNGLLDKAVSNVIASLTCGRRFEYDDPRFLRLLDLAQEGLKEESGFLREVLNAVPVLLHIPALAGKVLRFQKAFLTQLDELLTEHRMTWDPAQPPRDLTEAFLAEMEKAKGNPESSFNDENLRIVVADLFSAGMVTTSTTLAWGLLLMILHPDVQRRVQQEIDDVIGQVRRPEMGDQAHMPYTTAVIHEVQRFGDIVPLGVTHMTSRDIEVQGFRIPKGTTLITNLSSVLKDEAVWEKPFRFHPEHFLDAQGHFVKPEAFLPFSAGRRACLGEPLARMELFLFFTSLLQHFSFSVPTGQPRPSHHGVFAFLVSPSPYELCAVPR
# Chain of MDR1(human P-gp)-MDCK cells (P08183 whole entry): as the sequence (P08183 whole entry) above
compound,measurement,setting,value
"COc1cc([C@@H]2c3cc4c(cc3[C@@H](O[C@@H]3O[C@@H]5CO[C@@H](C)O[C@H]5[C@H](O)[C@H]3O)[C@H]3COC(=O)[C@H]23)OCO4)cc(OC)c1O [Etoposide, etoposide, reference compound]",% TGD,LXFS 573 SCLC PDX [1]; [18],50%
same,T-C,LXFS 573 SCLC PDX [1]; [18],21 days
same,median TTE,LXFS 573 SCLC PDX [1]; [18],63 days
same,SS number of study survivors,"LXFS 573 SCLC PDX [1]; Etoposide at 24 mg/kg/day SC days 1-3 + Vehicle, Day 133, N=8",0 (na)
same,% TGD,LXFS 573 SCLC PDX [1]; [19],50%
same,TGD,LXFS 573 SCLC PDX [1]; [19],21 days
same,median TTE,LXFS 573 SCLC PDX [1]; [19],63 days
"N#Cc1ccc(-c2cc(=O)n(CC3CC3)c(N3CCC(N)CC3)n2)cc1F [Example 109, 4-[2-(4-amino-piperidin-1-yl)-1-cyclopropylmethyl-6-oxo-1,6-dihydro-pyrimidin-4-yl]-2-fluoro-benzonitrile]",pIC50,human LSD-1,6.00 to 7.00
"N#Cc1ccc(-c2cc(=O)n(CCCO)c(N3CCC(N)CC3)n2)cc1F [Example 17, 4-[2-(4-amino-piperidin-1-yl)-1-(3-hydroxy-propyl)-6-oxo-1,6-dihydro-pyrimidin-4-yl]-2-fluoro-benzonitrile]",pIC50,human LSD-1,6.00 to 7.00
"COc1ccc(-c2c(-c3ccc(C#N)c(F)c3)nc(N3CCC(N)CC3)n(C)c2=O)cc1F [Compound A, 4-[2-(4-amino-piperidin-1-yl)-5-(3-fluoro-4-methoxy-phenyl)-1-methyl-6-oxo-1,6-dihydro-pyrimidin-4-yl]-2-fluoro-benzonitrile]",mean body weight gain by the end of study,NCI-H1417 SCLC xenograft; 2.5 mg base/kg PO QDx65,1%
same,mean body weight gain by the end of study,NCI-H1417 SCLC xenograft; 5 mg base/kg PO QDx65,7.5%
same,tumors from treated animals regressed in net volume,"NCI-H1417 SCLC xenograft; 2.5 and 5 mg base/kg groups together, end of study",14 out of 15
same,tolerability,NCI-H1417 SCLC xenograft; 2.5 or 5 mg base/kg PO QDx65,well tolerated
same,increase in platelets on Day 8 compared with the end of the first dosing period,[2]; 10 mg/kg/day 5 days on/2 days off,> 2 fold
same,reduction in neutrophil counts vs concurrent controls,[2]; females,66%
same,reduction in neutrophil counts vs concurrent controls,[2]; males,83%
same,greatest reduction in neutrophil counts vs concurrent controls and pre-study values,[2]; 5 days on/2 days off schedule,approximately 90%
same,circulating platelets,"[2]; all dose levels, end of the study",reduced
same,accumulation upon repeat dosing,[2]; mice,no accumulation
same,direct inhibitory effect,CYP2D6,little to no direct inhibitory effect
same,mean body weight losses,LXFS 1129 SCLC PDX,< 6%
same,tolerability,LU2514 SCLC PDX; both LU2514 studies,well tolerated
same,mean body weight losses,"LU2514 SCLC PDX; mouse, in vivo",< 10%
same,mean body weight losses,LXFS 615 SCLC PDX,< 1%
same,Median Tumor Volumes Diff,MS-1 hMCC xenograft,80 mm^3
same,half-life,"[3]; Beagle, Cynomolgus, dog, monkey, non-rodents",12 to 20 h
same,bioavailability,"[3]; Beagle, dog, cynomolgus monkey, dogs and monkeys",82 to 100%
same,Tmax,"[3]; CD-1, Sprague Dawley, Beagle, mouse, rat, dog, cynomolgus monkey, oral dosing, mice, rats, dogs, and monkeys, read-out: median time to peak plasma concentration (tmax)",0.5 to 6 h
same,half-life,[3]; [20],2 to 4 h
same,bioavailability,[3]; [20],28 to 74%
same,systemic clearance,[4],greater than liver blood flow
same,treatment-related effects,[5]; 0.25 mg/kg/dose QOD,generally no Compound A-related effects
same,accumulation after repeat dosing,[5]; QOD schedule,no accumulation
same,mutagenicity,[6],negative
same,mean steady state AUC0-24,[7],"17,800 ng·hr/mL"
same,accumulation after multiple doses,[8],No accumulation
same,AUC0-96,"[8]; female, Beagle, po, 0.25 mg/kg",343 ng·h/mL
same,Cmax,"[8]; female, Beagle, po, 0.25 mg/kg",12.1 ng/mL
same,AUC0-96,"[8]; female, Beagle, po, 0.5 mg/kg",729 ng·h/mL
same,AUClast,[9],2007 ng·h/mL
same,direct inhibitory effect,CYP2C9,little to no direct inhibitory effect
same,NOAEL,[10],< 0.5 mg base/kg/dose
same,maximum increase of QTcB interval vs time-matched vehicle,[11]; 10 mg base/kg IV,approximately 9%
same,maximum increase of QTcB interval vs time-matched vehicle,[11]; 15 mg base/kg IV,~13%
same,maximum increase of QTcB interval vs time-matched vehicle,[11]; 20 mg base/kg IV,~16%
same,"decrease in HR, maximum suppression as compared with vehicle","[11]; 20 mg base/kg IV, 9 minutes into the 10-minute infusion",19%
same,effect in MAP or its components,[11]; 5-20 mg base/kg IV vs time-matched vehicle,No notable effect
same,NOAEL for hemodynamic and ECG endpoints,[11]; IV administration,10 mg base/kg
same,QTcB interval increase at the end of the monitoring period,[11]; [21],10%
same,heart rate decrease at the end of the monitoring period,[11]; [21],18%
same,CYP enzyme responsible for oxidative metabolism,[12],CYP3A4 appears to be predominantly responsible
same,Median Tumor Volumes Day 15,MKL-1 hMCC xenograft,880 mm^3
same,mean body weight losses,LXFS 573 SCLC PDX [13],≤ 3%
same,metabolic stability,[14],greater in rat and dog followed by human and monkeys while being least stable in mouse hepatocytes
same,dose excreted intact (urine and bile),[15],26.3 % of the dose
same,dose excreted intact in urine,[15],8.5 % of dose
same,cause of moribund condition,[16]; 0.375 to 1.5 mg base/kg weekly,gastric mucosal ulceration and/or acute inflammation
same,accumulation after multiple dosing,"[16]; dog, in vivo",No accumulation
same,platelet count,"[16]; dog, in vivo",mildly to markedly decreased
same,AUC0-168,"[16]; female, Beagle, dog, in vivo, po",435 ng·h/mL
same,Cmax,"[16]; male, Beagle, dog, in vivo, po",17.2 ng/mL
same,HNSTD and NOAEL for the QW or BIW dose schedule,[16]; not determined,< 0.375 mg base/kg/dose
same,moribund euthanasia,"[16]; weekly oral, 1 male 0.375 QW, 2 males and 1 female 0.75, 3 males and 4 females 1.5 mg base/kg/dose, Days 13 to 23",11 animals
same,Papp,"P-gp (human MDR1); MDCK-MDR1, A→B direction",0.5 ×10⁻⁶ cm/s
same,Papp,"P-gp (human MDR1); MDCK-MDR1, B→A direction",16.5 ×10⁻⁶ cm/s
same,P-gp substrate status,[17],P-gp substrate
"Cn1c(N2CCC(N)CC2)nc(-c2ccncc2)c(-c2ccc3c(ccn3C)c2)c1=O [Example 116, 2-(4-amino-piperidin-1-yl)-3-methyl-5-(1-methyl-1H-indol-5-yl)-6-pyridin-4-yl-3H-pyrimidin-4-one]",pIC50,human LSD-1,6.00 to 7.00
"CCn1c(N2CCC(N)CC2)nc(-c2ccc(C#N)c(F)c2)cc1=O [Example 13, 4-[2-(4-amino-piperidin-1-yl)-1-ethyl-6-oxo-1,6-dihydro-pyrimidin-4-yl]-2-fluoro-benzonitrile]",pIC50,human LSD-1,6.00 to 7.00
"Cn1c(N2CCC(N)CC2)nc(-c2ccc(C#N)c(F)c2)c(-c2ccc(C(=O)O)cc2)c1=O [Example 39, 4-[2-(4-aminopiperidyl)-6-(4-cyano-3-fluorophenyl)-3-methyl-4-oxo-3-hydropyrimidin-5-yl] benzoic acid]",pIC50,human LSD-1,6.00 to 7.00
